Measured values from US20170368082A1, “FORMULATIONS OF BRINCIDOFOVIR” (priority 2016, published 2017).
Like-named read-outs stand apart in the source and are kept apart here.

Experiment: Phase 2 toxicokinetics of brincidofovir and cidofovir in plasma
Type: in vivo, Sprague-Dawley CD rats
Conditions: plasma; for AUC(0-t) / Cmax / Tmax / concentration at 1 h / concentration at 2 h / concentration at 8 h / concentration at 24 h / concentration at 0 h: Sprague-Dawley CD, rat; for AUC(0-t) / Cmax / Tmax: iv, brincidofovir in plasma; for Tmax: read-out: Tmax; for concentration at 1 h / concentration at 2 h / concentration at 8 h / concentration at 24 h / concentration at 0 h: intravenous
Method: Plasma samples (108) were collected 2 hours following the initiation of dosing on Day 1 and Day 7 (Group 1), or at 1, 2, 8, and 24 hours following the initiation of dosing on Day 1, and prior to administration and at 2, 8, and 24 hours following the initiation of dosing on Day 7 (Groups 2 and 3), and analyzed to determine the concentrations of brincidofovir and the metabolite, cidofovir), by LC/MS/MS.
Approximately 0.4 mL of whole blood was obtained via the tail vein from each animal at each time point. Animals were not fasted prior to blood collection. Blood was collected into tubes containing K2EDTA anticoagulant and placed on wet ice in an upright position, per facility SOP prior to processing. Plasma was separated by centrifugation (10 minutes at approximately 2000 g, at approximately 2-8° C.). Approximately 0.10 mL of plasma was transferred into a single cryotube appropriately labeled with study number, animal number, time point, date of sampling and sample type. Remaining plasma was transferred into a second cryotube and retained as a backup sample. Plasma frozen at approximately −80±10° C. within approximately 2 hours after collection of each blood sample until analysis. Animals were euthanized (CO2 inhalation) after the final blood collection.
In general, TK parameters were estimated using mean plasma concentrations of brincidofovir and cidofovir derived from the composite blood sampling design using Phoenix WinNonLin (V 6.3).
A composite blood sampling design was used such that each rat was sampled twice per sampling day. Blood was collected via tail vein from unanesthetized animals into tubes containing anticoagulant and placed on wet ice in an upright position. Animals were not fasted prior to blood collection. Plasma was separated by centrifugation (for 10 minutes at approximately 2000 g, at approximately 2-8° C.), and transferred into individually labeled cryotubes. All cryotubes containing the collected plasma samples were appropriately labeled as to study number, animal number, time point, date of sampling and sample type. All plasma samples were obtained and frozen at approximately −80° C. (±10° C.) within approximately 2 hours after collection of each blood sample until analysis.
Rat plasma bioanalysis was conducted by Pyxant Laboratories. Plasma samples were analyzed for concentrations of brincidofovir and cidofovir using a method based upon protein precipitation extraction followed by LC-MS/MS analysis; calibration ranges for brincidofovir and cidofovir were 1.00-1500 ng/mL and 5.00-750 ng/mL, respectively, (Pyxant study number 3025) for a 50 μL aliquot of rat plasma. Sample analysis for ISR was not performed as part of this non-GLP study.
For the generation of Mean Profiles, all sample concentrations that were below the limit of quantitation (BLQ) were set to 0.
All pharmacokinetic parameter estimates were completed using a Non-Compartmental Model (Model 200-202 for IV infusion administration). The AUClast and AUCinf were calculated using the linear up log down trapezoidal rule.

[1] = female, 15 mg/kg, 15 mg/kg 2-hour IV infusion, Female rats, Day 1
[2] = female, 15 mg/kg, 15 mg/kg 2-hour IV infusion, Female rats, Day 7
[3] = male, 1 mg/kg, brincidofovir 1 mg/kg 2-h IV infusion, male rats, Day 1, BLQ imputed as zero, read-out: Imputed Concentration, Mean
[4] = male, 1 mg/kg, brincidofovir 1 mg/kg 2-h IV infusion, male rats, Day 1, BLQ imputed as zero, read-out: Imputed Concentration, individual animals
[5] = male, 1 mg/kg, 1 mg/kg 2-hour IV infusion, Male rats, Day 1
[6] = male, 1 mg/kg, 1 mg/kg 2-hour IV infusion, Male rats, Day 7
[7] = male, 15 mg/kg, 15 mg/kg 2-hour IV infusion, Male rats, Day 1
[8] = male, 15 mg/kg, 15 mg/kg 2-hour IV infusion, Male rats, Day 7

**Q.** Which results are given for `CCCCCCCCCCCCCCCCOCCCOP(=O)(O)CO[C@H](CO)Cn1ccc(N)nc1=O` [Brincidofovir]?
**A.** AUC(0-t) [1]: 7360 ng·h/mL; Cmax [1]: 3470 ng/mL; Tmax [1]: 1 h; AUC(0-t) [2]: 3420 ng·h/mL; Cmax [2]: 1660 ng/mL; Tmax [2]: 2 h; concentration at 1 h [3]: 227 ng/mL; concentration at 1 h [4]: 156 ng/mL; concentration at 2 h [3]: 235 ng/mL; concentration at 2 h [4]: 220 ng/mL; concentration at 8 h (male, 1 mg/kg, brincidofovir 1 mg/kg 2-h IV infusion, male rats, Day 1, 8 h, BLQ imputed as zero, read-out: Imputed Concentration, Mean): 0 ng/mL; concentration at 8 h (male, 1 mg/kg, brincidofovir 1 mg/kg 2-h IV infusion, male rats, Day 1, 8 h, BLQ imputed as zero, read-out: Imputed Concentration, individual animals): 0 ng/mL; concentration at 24 h (male, 1 mg/kg, brincidofovir 1 mg/kg 2-h IV infusion, male rats, Day 1, 24 h, BLQ imputed as zero, read-out: Imputed Concentration, Mean): 0 ng/mL; concentration at 24 h (male, 1 mg/kg, brincidofovir 1 mg/kg 2-h IV infusion, male rats, Day 1, 24 h, BLQ imputed as zero, read-out: Imputed Concentration, individual animals): 0 ng/mL; concentration at 0 h (male, 1 mg/kg, brincidofovir 1 mg/kg 2-h IV infusion, male rats, Day 7, 0 h, BLQ imputed as zero, read-out: Imputed Concentration, Mean): 0 ng/mL; concentration at 0 h (male, 1 mg/kg, brincidofovir 1 mg/kg 2-h IV infusion, male rats, Day 7, 0 h, BLQ imputed as zero, read-out: Imputed Concentration, individual animals): 0 ng/mL; concentration at 24 h (male, 15 mg/kg, brincidofovir 15 mg/kg, Male, Day 1, 24 h, read-out: brincidofovir Imputed Mean Concentration (IMC)): 1.22 ng/mL; concentration at 24 h (male, 15 mg/kg, brincidofovir 15 mg/kg, Male, Day 1, 24 h, read-out: brincidofovir Mean Concentration (MC)): 1.22 ng/mL; concentration at 8 h (male, 15 mg/kg, brincidofovir 15 mg/kg, Male, Day 7, 8 h, read-out: brincidofovir Imputed Mean Concentration (IMC)): 8.72 ng/mL; concentration at 24 h (male, 15 mg/kg, brincidofovir 15 mg/kg, Male, Day 7, 24 h, read-out: brincidofovir Imputed Mean Concentration (IMC)): 1.45 ng/mL; concentration at 24 h (male, 15 mg/kg, brincidofovir 15 mg/kg, Male, Day 7, 24 h, read-out: brincidofovir Mean Concentration (MC)): 1.45 ng/mL; concentration at 8 h (male, 15 mg/kg, 15 mg/kg, male rats, Day 1, 8 h, read-out: C (Concentration), individual animals): 10.7 ng/mL; concentration at 8 h (male, 15 mg/kg, 15 mg/kg, male rats, Day 1, 8 h, read-out: IC (Imputed Concentration), individual animals): 10.7 ng/mL; concentration at 24 h (male, 15 mg/kg, 15 mg/kg, male rats, Day 1, 24 h, read-out: C (Concentration), individual animals): 1.2 ng/mL; concentration at 24 h (male, 15 mg/kg, 15 mg/kg, male rats, Day 1, 24 h, read-out: IC (Imputed Concentration), individual animals): 1.2 ng/mL; concentration at 8 h (male, 15 mg/kg, 15 mg/kg, male rats, Day 7, 8 h, read-out: C (Concentration), individual animals): 9.82 ng/mL; concentration at 8 h (male, 15 mg/kg, 15 mg/kg, male rats, Day 7, 8 h, read-out: IC (Imputed Concentration), individual animals): 9.82 ng/mL; concentration at 24 h (male, 15 mg/kg, 15 mg/kg, male rats, Day 7, 24 h, read-out: C (Concentration), individual animals): 1.85 ng/mL; concentration at 24 h (male, 15 mg/kg, 15 mg/kg, male rats, Day 7, 24 h, read-out: IC (Imputed Concentration), individual animals): 1.85 ng/mL; Cmax [5]: 235 ng/mL; Tmax [5]: 2 h; Cmax [6]: 208 ng/mL; Tmax [6]: 2 h; AUC(0-t) [7]: 8780 ng·h/mL; Cmax [7]: 4370 ng/mL; Tmax [7]: 1 h; AUC(0-t) [8]: 4090 ng·h/mL; Cmax [8]: 1910 ng/mL; Tmax [8]: 2 h; C (Concentration), individual animals (1 mg/kg, female rats, Day 1, 8 h, listed as BCV, 1 mg/kg): BLQ; C (Concentration), individual animals (1 mg/kg, female rats, Day 1, 24 h): BLQ; C (Concentration), individual animals (1 mg/kg, female rats, Day 7, 0 h): BLQ; C (Concentration), individual animals (1 mg/kg, female rats, Day 7, 8 h, listed as BCV, 1 mg/kg): BLQ; C (Concentration), individual animals (1 mg/kg, female rats, Day 7, 24 h): BLQ; C (Concentration), individual animals (1 mg/kg, male rats, Day 1, 8 h): BLQ; C (Concentration), individual animals (1 mg/kg, male rats, Day 1, 24 h): BLQ; C (Concentration), individual animals (1 mg/kg, male rats, Day 7, 0 h): BLQ; C (Concentration), individual animals (1 mg/kg, male rats, Day 7, 8 h): BLQ; C (Concentration), individual animals (1 mg/kg, male rats, Day 7, 24 h): BLQ; C (Concentration), individual animals (15 mg/kg, female rats, Day 7, 0 h): BLQ
